≈ marks a conversion by molar mass, not a printed value.
Experiments:
[1] = target: T1, Voltage-gated inwardly rectifying potassium channel KCNH2 (Homo sapiens, UniProt Q12809); experiment: Inhibition of human ERG expressed in CHOK1 cells by patch clamp assay; format: cell-based
[2] = system: K562; experiment: Antiproliferative activity against human K562 cells; format: cell-based
[3] = system: Staphylococcus aureus; experiment: Antibacterial activity against methicillin-resistant Staphylococcus aureus USA300 by CLSI method; format: functional
[4] = system: Staphylococcus aureus; experiment: Antibacterial activity against methicillin-sensitive Staphylococcus aureus ATCC 29213 by CLSI method; format: functional
[5] = Inhibition of Staphylococcus aureus topoisomerase-4-mediated kinetoplast DNA decatenation after 30 mins by agarose gel electrophoresis
[6] = Inhibition of human topoisomerase-2 in etoposide-resistant K/VP.5 cells assessed as growth inhibition
[7] = species on record: Homo sapiens; experiment: Inhibition of human topoisomerase-2 mediated kinetoplast DNA decatenation assessed as remaining activity at 100 uM relative to control
[8] = target: DNA gyrase (Staphylococcus aureus, UniProt P0A0K8+P20831); experiment: Inhibition of Staphylococcus aureus DNA gyrase supercoiling activity using pBR322 as substrate after 30 mins by agarose gel electrophoresis; format: protein-complex assay
[9] = Selectivity ratio of IC50 for human K562 cells to MIC for methicillin-sensitive Staphylococcus aureus ATCC 29213; format: toxicity
[10] = target: T1, Voltage-gated inwardly rectifying potassium channel KCNH2; experiment: Inhibition of human ERG expressed in CHO cells using -80 mV holding potential measured after 3 mins; format: cell-based

T1 sequence (Q12809 whole entry): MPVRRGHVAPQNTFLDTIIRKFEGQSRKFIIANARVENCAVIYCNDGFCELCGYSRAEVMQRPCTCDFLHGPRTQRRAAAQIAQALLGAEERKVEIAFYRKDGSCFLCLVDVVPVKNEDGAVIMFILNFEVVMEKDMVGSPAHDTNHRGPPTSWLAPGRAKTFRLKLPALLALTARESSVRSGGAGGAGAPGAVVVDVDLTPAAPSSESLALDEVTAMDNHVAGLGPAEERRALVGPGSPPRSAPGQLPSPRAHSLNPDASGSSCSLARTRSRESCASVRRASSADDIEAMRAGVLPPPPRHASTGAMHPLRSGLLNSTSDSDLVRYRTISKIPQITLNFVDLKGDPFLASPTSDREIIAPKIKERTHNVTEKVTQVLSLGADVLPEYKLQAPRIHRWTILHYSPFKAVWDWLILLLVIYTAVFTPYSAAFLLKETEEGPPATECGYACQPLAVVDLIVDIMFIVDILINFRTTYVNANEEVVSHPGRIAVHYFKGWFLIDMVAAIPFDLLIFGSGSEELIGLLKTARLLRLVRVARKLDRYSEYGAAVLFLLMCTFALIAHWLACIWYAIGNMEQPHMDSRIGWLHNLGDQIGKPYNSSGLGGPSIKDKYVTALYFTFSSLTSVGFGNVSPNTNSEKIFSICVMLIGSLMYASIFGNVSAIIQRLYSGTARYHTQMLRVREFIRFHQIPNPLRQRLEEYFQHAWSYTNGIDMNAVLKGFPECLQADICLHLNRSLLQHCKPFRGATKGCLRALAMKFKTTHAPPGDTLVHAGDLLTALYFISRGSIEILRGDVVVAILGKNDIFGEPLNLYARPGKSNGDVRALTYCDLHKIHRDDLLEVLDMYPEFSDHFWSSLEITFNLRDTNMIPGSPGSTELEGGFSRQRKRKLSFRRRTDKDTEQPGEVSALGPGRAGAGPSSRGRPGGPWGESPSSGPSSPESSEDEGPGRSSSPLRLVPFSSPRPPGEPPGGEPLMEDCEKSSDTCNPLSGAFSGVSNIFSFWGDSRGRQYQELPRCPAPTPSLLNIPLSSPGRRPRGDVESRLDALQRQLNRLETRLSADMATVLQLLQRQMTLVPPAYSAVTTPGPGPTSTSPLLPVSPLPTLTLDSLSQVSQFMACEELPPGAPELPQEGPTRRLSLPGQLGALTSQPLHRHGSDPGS
Sequence of DNA gyrase (P0A0K8 whole entry): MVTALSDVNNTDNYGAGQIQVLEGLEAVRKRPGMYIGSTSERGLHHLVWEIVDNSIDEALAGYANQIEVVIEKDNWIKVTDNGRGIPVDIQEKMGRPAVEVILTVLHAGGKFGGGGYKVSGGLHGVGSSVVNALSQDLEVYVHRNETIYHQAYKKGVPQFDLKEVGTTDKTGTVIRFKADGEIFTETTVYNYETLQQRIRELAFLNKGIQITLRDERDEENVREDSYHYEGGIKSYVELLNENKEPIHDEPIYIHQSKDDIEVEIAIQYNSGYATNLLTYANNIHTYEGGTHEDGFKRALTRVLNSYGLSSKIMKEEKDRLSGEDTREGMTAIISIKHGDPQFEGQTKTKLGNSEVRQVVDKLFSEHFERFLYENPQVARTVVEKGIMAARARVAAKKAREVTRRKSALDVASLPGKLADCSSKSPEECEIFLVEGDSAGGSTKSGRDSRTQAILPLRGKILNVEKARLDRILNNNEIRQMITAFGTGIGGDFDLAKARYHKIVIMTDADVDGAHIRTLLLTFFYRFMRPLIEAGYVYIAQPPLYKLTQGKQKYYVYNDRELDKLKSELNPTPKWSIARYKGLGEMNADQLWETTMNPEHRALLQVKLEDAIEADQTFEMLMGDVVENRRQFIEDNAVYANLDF
Sequence of DNA gyrase (P20831 whole entry): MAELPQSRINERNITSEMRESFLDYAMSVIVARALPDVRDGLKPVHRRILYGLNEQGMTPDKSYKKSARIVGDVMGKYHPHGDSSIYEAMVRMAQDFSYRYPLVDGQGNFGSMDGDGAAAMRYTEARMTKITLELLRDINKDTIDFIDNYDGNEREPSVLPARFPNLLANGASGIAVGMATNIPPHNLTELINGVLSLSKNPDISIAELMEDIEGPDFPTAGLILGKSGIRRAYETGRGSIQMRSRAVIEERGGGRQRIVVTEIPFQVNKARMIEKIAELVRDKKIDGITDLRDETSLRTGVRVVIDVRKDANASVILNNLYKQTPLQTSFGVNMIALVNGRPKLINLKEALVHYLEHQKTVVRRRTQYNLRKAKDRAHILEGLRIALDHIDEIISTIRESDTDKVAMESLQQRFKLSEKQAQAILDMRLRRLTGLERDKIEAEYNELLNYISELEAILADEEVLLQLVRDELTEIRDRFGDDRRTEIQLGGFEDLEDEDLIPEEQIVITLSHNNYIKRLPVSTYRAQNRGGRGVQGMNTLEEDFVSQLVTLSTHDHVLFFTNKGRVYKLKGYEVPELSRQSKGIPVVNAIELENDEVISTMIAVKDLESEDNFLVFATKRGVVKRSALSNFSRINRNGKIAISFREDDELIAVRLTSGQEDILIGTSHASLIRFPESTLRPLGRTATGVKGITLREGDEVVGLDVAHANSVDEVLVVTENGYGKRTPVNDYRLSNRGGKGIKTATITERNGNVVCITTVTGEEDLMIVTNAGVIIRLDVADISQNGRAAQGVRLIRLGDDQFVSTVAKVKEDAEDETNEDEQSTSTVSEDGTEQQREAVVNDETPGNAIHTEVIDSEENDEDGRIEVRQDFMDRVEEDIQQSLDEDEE

| Structure (SMILES) | IC50 [1] [µM] | IC50 [2] [µM] | MIC [3] [µg/mL] | MIC [4] [µg/mL] | IC50 [5] [µM] | IC50 [6] [µM] | Activity [7] [%] | also measured |
| --- | --- | --- | --- | --- | --- | --- | --- | --- |
| COc1ccc2nccc(CC[C@H]3OC[C@H](NCc4ccc5c(n4)NC(=O)CS5)CO3)c2c1 | 1.3 | 31 | 0.5 (≈ 1.07 µM) | 0.5 (≈ 1.07 µM) | > 100 | 34 | 91.1 | – |
| COc1ccc2nccc(CC[C@H]3OC[C@H](NCc4ccc(Cl)cc4)CO3)c2c1 | 2 | 12 | 4 (≈ 9.69 µM) | 1 (≈ 2.42 µM) | > 100 | 16 | 97.8 | IC50 [8]: 1.2 µM |
| COc1ccc2nccc(CCN3CCC(NCc4ccc(Cl)c(Cl)c4)CC3)c2c1 | 1 | – | – | – | – | – | – | – |
| COc1cc([C@@H]2c3cc4c(cc3[C@@H](O[C@@H]3O[C@@H]5CO[C@@H](C)O[C@H]5[C@H](O)[C@H]3O)[C@H]3COC(=O)[C@H]23)OCO4)cc(OC)c1O [ETOPOSIDE] | – | 0.3 | – | – | – | 5.1 | 33.6 | – |
| COc1ccc2nccc(CC[C@H]3OC[C@H](NCc4ccc5c(n4)NC(=O)CO5)CO3)c2c1 | 2.5 | 24 | 1 (≈ 2.22 µM) | 0.5 (≈ 1.11 µM) | > 100 | 44 | 99.1 | – |
| COc1ccc2nccc(CC[C@H]3OC[C@H](NCc4ccccn4)CO3)c2c1 | – | – | – | 8 (≈ 21.1 µM) | – | – | – | – |
| COc1ccc2nccc(CC[C@H]3CC[C@H](NCc4ccc(Cl)c(Cl)c4)CC3)c2c1 | 2.3 | – | – | – | – | – | – | – |
| COc1ccc2nccc(CC[C@H]3CC[C@H](NCc4cc5c(cn4)OCCO5)CC3)c2c1 | 0.94 | 7.5 | – | – | – | 5.7 | – | – |
| COc1ccc2nccc(CC[C@H]3OC[C@H](NCc4cc5c(cn4)OCCC5)CO3)c2c1 | 12 | 32 | 2 (≈ 4.59 µM) | 1 (≈ 2.3 µM) | 25 to 50 | 40 | 93.8 | – |
| COc1ccc2nccc(CC[C@H]3OC[C@H](NCc4cccc(Cl)c4)CO3)c2c1 | – | – | – | 32 (≈ 77.5 µM) | – | – | – | – |
| COc1ccc2nccc(CC[C@H]3OC[C@H](NCc4ccccc4Cl)CO3)c2c1 | – | – | – | > 64 | – | – | – | – |
| COc1ccc2nccc(CC[C@H]3OC[C@H](NCc4ccc5c(c4)OCCO5)CO3)c2c1 | 5.1 | 7.4 | 0.5 (≈ 1.15 µM) | 0.25 to 1 (≈ 0.573 to 2.29 µM) | 14 | 8.8 | 84.2 | selectivity ratio [9]: 3.5 |
| O=c1ccc2ncc(=O)n3c2n1C[C@H]3CN1CCC(NCc2cc3c(cn2)OCCC3)CC1 [GEPOTIDACIN] | – | – | – | – | – | – | – | IC50 [10]: 1310 µM |
| COc1ccc2nccc(CC[C@H]3OC[C@H](NCc4ccc(Cl)cn4)CO3)c2c1 | – | – | – | 8 (≈ 19.3 µM) | – | – | – | – |
| CN[C@H](CC(C)C)C(=O)N[C@H]1C(=O)N[C@@H](CC(N)=O)C(=O)N[C@H]2C(=O)N[C@H]3C(=O)N[C@H](C(=O)N[C@H](C(=O)O)c4cc(O)cc(O)c4-c4cc3ccc4O)[C@H](O)c3ccc(c(Cl)c3)Oc3cc2cc(c3O[C@@H]2O[C@H](CO)[C@@H](O)[C@H](O)[C@H]2O[C@H]2C[C@](C)(N)[C@H](O)[C@H](C)O2)Oc2ccc(cc2Cl)[C@H]1O [VANCOMYCIN] | – | – | 1 to 2 (≈ 0.69 to 1.38 µM) | – | – | – | – | – |
| COc1ccc2nccc(CC[C@H]3OC[C@H](NCc4ccc5c(c4)NC(=O)CO5)CO3)c2c1 | – | – | 1 (≈ 2.22 µM) | 1 to 2 (≈ 2.22 to 4.45 µM) | > 100 | – | – | – |
| COc1ccc2nccc(CCN3CCC(NCc4cc5c(cn4)OCCO5)CC3)c2c1 | 1.9 | 28 | – | – | – | 22 | – | – |
| COc1ccc2nccc(CC[C@H]3CC[C@H](NCc4ccc5c(n4)NC(=O)CO5)CC3)c2c1 | 0.41 | 12 | – | – | – | 11 | – | – |
| COc1ccc2nccc(CCN3CCC(NCc4ccc5c(n4)NC(=O)CO5)CC3)c2c1 | 3.8 | 19 | – | – | – | 16 | – | – |
| O=C(O)c1cn(C2CC2)c2cc(N3CCNCC3)c(F)cc2c1=O [CIPROFLOXACIN] | – | – | – | – | 14.3 | – | 85.5 | – |
| COc1ccc2nccc(CC[C@H]3OC[C@H](NCc4ccccc4)CO3)c2c1 | – | – | – | > 64 | – | – | – | – |
| COc1ccc2nccc(CC[C@H]3OC[C@H](NCc4ccc(Cl)c(Cl)c4)CO3)c2c1 | 4.8 | 20 | 0.5 (≈ 1.12 µM) | – | > 100 | 15 | 93.2 | – |
| COc1ccc2nccc(CCN3CCC(NCc4ccc5c(c4)OCCO5)CC3)c2c1 | 0.81 | 10 | – | – | – | 12 | – | – |
| COc1ccc2nccc(CC[C@H]3OC[C@H](NCc4cc5c(cn4)OCCO5)CO3)c2c1 | 9.5 | 40 | 2 (≈ 4.57 µM) | 1 to 2 (≈ 2.29 to 4.57 µM) | 50 | 48 | 95.1 | – |
| COc1ccc2nccc(CC[C@H]3CC[C@H](NCc4ccc5c(c4)OCCO5)CC3)c2c1 | 0.26 | 4.2 | – | – | – | 4.5 | – | – |
| COc1ccc2nccc(CC[C@H]3OC[C@H](NCc4cccnc4)CO3)c2c1 | – | – | – | > 64 | – | – | – | – |
